Test results published in US6410585B1, “Inhibitors of protein tyrosine phosphatase” (priority 1997, dated 2002).
Like-named read-outs stand apart in the source and are kept apart here.

Molecular target: T1, rat PTP1 (Rattus norvegicus, UniProt P20417)
T1 construct: a C-terminal truncation of rat PTP1 (amino acid residues 1-322); GST (N, cleaved yes); made in house; host or cells: E. coli strain TG-1 (pGEX-2T)
T1 sequence (P20417 1-322): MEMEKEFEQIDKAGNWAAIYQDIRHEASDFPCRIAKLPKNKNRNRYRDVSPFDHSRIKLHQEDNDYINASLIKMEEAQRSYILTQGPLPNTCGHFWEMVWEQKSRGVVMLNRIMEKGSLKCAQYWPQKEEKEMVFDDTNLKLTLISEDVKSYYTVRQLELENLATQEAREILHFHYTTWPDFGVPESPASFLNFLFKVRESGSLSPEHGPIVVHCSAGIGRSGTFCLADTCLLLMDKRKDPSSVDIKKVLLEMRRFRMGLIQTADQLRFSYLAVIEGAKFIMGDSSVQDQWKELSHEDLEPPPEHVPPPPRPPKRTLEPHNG
Assay: PTP1 assay, pNPP hydrolysis (rate of change in A405)
Assay type: biochemical
From the text: PTP1 Assays: A construct, which consisted of a C-terminal truncation of rat PTP1 (amino acid residues 1-322) (cloned from a rat brain library) with an N-terminal glutathione S-transferase (GST) tag and an adjacent thrombin cleavage site, was inserted into vector plasmid pGEX-2T and transformed into E. coli strain TG-1 under the control of a lac promoter (K. L. Guan and J. E. Dixon (1991) Eukaryotic proteins expressed in Escherichia coli: an improved thrombin cleavage and purification procedure of fusion proteins with glutathione S-transferase. Analyt. Biochem. 192: 262-267). The GST-fusion protein was purified on a glutathione agarose affinity column, the GST tag was cleaved with thrombin, and the active enzyme was recovered for use in an assay to identify PTP inhibitors.
PTP1 activity is measured using either p-nitrophenol phosphate (pNPP) or a triphosphopeptide (that matches residues 1142 through 1153 of the β-subunit and the insulin receptor) as substrate in a 96-well microtiter plate format. An assay pH of 7.2 is used for standard assays (measured 405=9800 at pH 7.2).
Standard assays are conducted at room temperature in a total volume of 0.2 ml that contains Hepes buffer (50 mM, pH 7.2), NaCl (50 mM), EDTA (1 mM), DTT (1 mM), bovine serum albumin (1 mg/ml), pNPP (1 mM) and PTP1 (35 ng/ml). Compounds (2 μl of 10 mM solutions) are pipetted into wells of microtiter plates followed by 198 μl of premixed reaction mix (with PTP1 and pNPP added immediately before use). The rate of change in A405 is recorded for 60 min. Two wells on each plate contain DMSO controls and two wells contain sodium orthovanadate (1 mM) which inhibits PTP1-catalyzed hydrolysis of pNPP completely. Data are expressed as percent inhibition relative to the average of the DMSO controls measured on the same microtiter plate.

[1] = Conc 1 uM, pNPP hydrolysis, Table 1, read-out: PTP1 Inhib % Inhib
[2] = Conc 10 uM, pNPP hydrolysis, Table 1, read-out: PTP1 Inhib % Inhib
[3] = Conc 100 uM, pNPP hydrolysis, Table 1, read-out: PTP1 Inhib % Inhib
[4] = Conc 1 uM, pNPP hydrolysis, Table 2, read-out: PTP1 Inhib PTP1N. % Inhib
[5] = Conc 10 uM, pNPP hydrolysis, Table 2, read-out: PTP1 Inhib PTP1N. % Inhib
[6] = Conc 100 uM, pNPP hydrolysis, Table 2, read-out: PTP1 Inhib PTP1N. % Inhib
[7] = inhibition of pNPP-hydrolysis, compound concentration 1 μM, read-out: % Inhibition
[8] = inhibition of pNPP-hydrolysis, compound concentration 10 μM, read-out: % Inhibition
[9] = inhibition of pNPP-hydrolysis, compound concentration 100 μM, read-out: % Inhibition

Compound	inhibition at 1 µM [1] [%]	inhibition at 10 µM [2] [%]	inhibition at 100 µM [3] [%]	also measured
CCCCCNC(=O)C(Cc1ccc(OS(=O)(=O)O)cc1)NC(=O)CCC(=O)O (centres unmarked)	3	8	80	–
CCCCCNC(=O)C(Cc1ccc(OC(COO)COO)cc1)NC(=O)C(Cc1ccc(OC)cc1)NC(=O)CCC(=O)O (centres unmarked)	–	–	–	inhibition at 1 µM [4]: 32%; inhibition at 10 µM [5]: 83%; inhibition at 100 µM [6]: 98%
CC(C)(C)OC(=O)N[C@@H](Cc1ccccc1)C(=O)N[C@@H](Cc1ccc(OCC(=O)O)c(C(=O)O)c1)C(=O)NCCCc1ccccc1 [Example 157-1, 5-{(2S)-2-({(2S)-2-[(tert-Butoxycarbonyl)amino]-3-phenylpropanoyl}amino)-3-oxo-3-[(3-phenylpropyl)amino]propyl}-2-(carboxymethoxy)benzoic Acid]	–	–	–	inhibition at 1 µM [7]: 39%; inhibition at 10 µM [8]: 84%; inhibition at 100 µM [9]: 97%
O=C(O)COc1ccc(C[C@H](NS(=O)(=O)c2ccccc2)C(=O)NCCCOc2ccccc2)cc1C(=O)O [Example 156-16, 2-(carboxymethoxy)-5-{(2S)-3-oxo-3-[(3-phenoxypropyl)amino]-2-[(phenylsulfonyl)amino]propyl}benzoic acid]	–	–	–	inhibition at 1 µM [7]: 20%; inhibition at 10 µM [8]: 72%; inhibition at 100 µM [9]: 95%
CCCCCNC(=O)C(Cc1ccc(OC(=CCOO)COO)cc1)NC(=O)CCC(=O)O (centres unmarked)	0	9	50	–
CCCCCNC(=O)C(Cc1ccc(OC(COO)COO)cc1)NC(=O)N(CC(=O)O)Cc1ccc(OCc2ccccc2)cc1 (centres unmarked)	5	35	90	–
CCCCCNC(=O)C(Cc1ccc(OC(COO)COO)cc1)NC(=O)C(Cc1ccc(C(=O)c2ccccc2)cc1)NC(=O)CCc1ccc(O)cc1 (centres unmarked)	–	–	–	inhibition at 1 µM [4]: 9%; inhibition at 10 µM [5]: 47%; inhibition at 100 µM [6]: 89%
O=C(O)COc1ccc(C[C@H](NC(=O)c2ccccc2)C(=O)NCCCCc2ccc(Cl)cc2)cc1C(=O)O [Example 154-19, 5-((2S)-2-(benzoylamino)-3-{[4-(4-chlorophenyl)butyl]amino}-3-oxopropyl)-2-(carboxymethoxy)benzoic acid]	–	–	–	inhibition at 1 µM [7]: 40%; inhibition at 10 µM [8]: 55%; inhibition at 100 µM [9]: 98%
O=C(O)COc1ccc(C[C@H](NC(=O)c2ccccc2)C(=O)NCCCCc2ccccc2)cc1C(=O)O [Example 154-8, 5-{(2S)-2-(benzoylamino)-3-oxo-3-[(4-phenylbutyl)amino]propyl}-2-(carboxymethoxy)benzoic acid]	–	–	–	inhibition at 1 µM [7]: 30%; inhibition at 10 µM [8]: 81%; inhibition at 100 µM [9]: 97%
CCOC(CNC(=O)[C@H](Cc1ccc(OC(C(=O)O)C(=O)O)cc1)NC(=O)CCC(=O)O)OCC	0	7	46	–
CCCCCNC(=O)C(Cc1ccc(OC(COO)COO)cc1)NC(=O)Nc1cc(C(=O)O)cc(C(=O)O)c1 (centres unmarked)	16	64	94	–
CCCCCNC(=O)C(Cc1ccc(OC(COO)COO)cc1)NC(=O)C(Cc1ccc(C(=O)c2ccccc2)cc1)NC(=O)CCC(=O)O (centres unmarked) [drawing 133]	42	87	98	–
CCCCCNC(=O)C(Cc1ccc(OCC(=O)O)c(COO)c1)NC(=O)CCC(=O)O (centres unmarked)	17	63	93	–
CCCCCNC(=O)[C@H](Cc1ccc(OC(C(=O)O)C(=O)O)cc1)NC(=O)C(CC(=O)O)NC(=O)OCc1ccccc1 (some centres unmarked)	10	51	90	–
CC(C)OCCCNC(=O)[C@H](Cc1ccc(OCC(=O)O)c(C(=O)O)c1)NC(=O)[C@H](Cc1ccccc1)NC(=O)OC(C)(C)C [Example 157-16, 5-{(2S)-2-({(2S)-2-[(tert-Butoxycarbonyl)amino]-3-phenylpropanoyl}amino)-3-[(3-isopropoxypropyl)amino]-3-oxopropyl}-2-(carboxymethoxy)benzoic Acid]	–	–	–	inhibition at 1 µM [7]: 38%; inhibition at 10 µM [8]: 83%; inhibition at 100 µM [9]: 97%
CCCCCNC(=O)[C@H](Cc1ccc(C=C(C(=O)O)C(=O)O)cc1)NC(=O)CCC(=O)O	3	6	33	–
CCCCCNC(=O)C(Cc1ccc(OC(COO)COO)cc1)NC(=O)N(CC(=O)O)Cc1ccccc1 (centres unmarked)	3	25	75	–
CCCCCNC(=O)C(Cc1ccc(OC(C(=O)O)C(=O)O)c(F)c1)NC(=O)CCC(=O)O (centres unmarked)	–	–	–	inhibition at 1 µM [4]: 4%; inhibition at 10 µM [5]: 29%; inhibition at 100 µM [6]: 78%
CCCC[C@H](NC(=O)[C@H](Cc1ccc(OC(C(=O)O)C(=O)O)cc1)NC(=O)CCC(=O)O)C(N)=O	16	63	93	–
O=C(O)CCC(=O)NC(Cc1ccc(C(=O)c2ccccc2)cc1)C(=O)NCCc1ccc(OC(COO)COO)cc1 (centres unmarked)	–	–	–	inhibition at 1 µM [4]: 1%; inhibition at 10 µM [5]: 13%; inhibition at 100 µM [6]: 60%
CCCCCNC(=O)[C@H](Cc1ccc(OC(C(=O)O)C(=O)O)cc1)NC(=O)CCc1ccc(CC(C(=O)O)C(=O)O)cc1	5	29	79	–
CCCCCNC(=O)C(Cc1ccc(OC(COO)C(=O)O)cc1)NC(=O)NC(Cc1ccccc1)C(=O)O (centres unmarked)	–	–	–	inhibition at 1 µM [4]: 8%; inhibition at 10 µM [5]: 57%; inhibition at 100 µM [6]: 93%
CCCCCNC(=O)[C@H](Cc1ccc(OC(C(=O)O)C(=O)O)cc1)NC(=O)C1CC1C(=O)O (some centres unmarked)	0	11	57	–
CCCCCNC(=O)C(Cc1ccc(OC(COO)COO)cc1)NC(=O)C(Cc1ccc(C(=O)c2ccccc2)cc1)NC(=O)CCC(=O)O (centres unmarked) [drawing 139]	–	–	–	inhibition at 1 µM [4]: 4%; inhibition at 10 µM [5]: 13%; inhibition at 100 µM [6]: 54%
CC(C)CC(CO)NC(=O)C(Cc1ccc(OC(COO)COO)cc1)NC(=O)CCC(=O)O (centres unmarked)	–	–	–	inhibition at 1 µM [4]: 3%; inhibition at 10 µM [5]: 15%; inhibition at 100 µM [6]: 57%
O=C(O)COc1ccc(C[C@H](NS(=O)(=O)/C=C/c2ccccc2)C(=O)NCCCCc2ccc(Cl)cc2)cc1C(=O)O [Example 156-7, 2-(carboxymethoxy)-5-[(2S)-3-{[4-(4-chlorophenyl)butyl]amino}-3-oxo-2-({[(E)-2-phenylethenyl]sulfonyl}amino)propyl]benzoic acid]	–	–	–	inhibition at 1 µM [7]: 18%; inhibition at 10 µM [8]: 69%; inhibition at 100 µM [9]: 95%

Continued, in another order:

inhibition at 1 µM [1] [%]	inhibition at 10 µM [2] [%]	inhibition at 100 µM [3] [%]	Compound	also measured
4	9	39	CCCCCNC(=O)C(Cc1ccc(OC(COO)COO)cc1)NC(=O)CCC(=O)OCc1ccccc1 (centres unmarked)	–
17	64	94	CCCCCNC(=O)C(Cc1ccc(OC(COO)COO)cc1)NC(=O)NC(CCC(=O)O)C(=O)O (centres unmarked)	–
4	23	75	CCCCCNC(=O)C(Cc1ccc(OC(COO)COO)cc1)NC(=O)NCC(=O)O (centres unmarked)	–
2	21	72	CCCCCNC(=O)C(Cc1ccc(OC(COO)COO)cc1)NC(=O)NCCC(=O)O (centres unmarked)	PTP1 Inhib % Inhib (Conc 1 uM, pNPP hydrolysis, Table 1): 3%; PTP1 Inhib % Inhib (Conc 100 uM, pNPP hydrolysis, Table 1): 74%
6	18	63	CCCCCNC(=O)C(Cc1ccc(OC(COO)COO)cc1)NC(=O)NCCCCCC(=O)O (centres unmarked)	–
0	6	48	CC(C)CCNC(=O)[C@H](Cc1ccc(OC(C(=O)O)C(=O)O)cc1)NC(=O)CCC(=O)O	–
12	24	63	O=C(O)CCC(=O)NC(Cc1ccc(OC(COO)COO)cc1)C(=O)NCc1ccc2c(c1)OCO2 (centres unmarked)	–
